Like-named read-outs stand apart in the source and are kept apart here.
Tests used:
[1] = target: T1, human GLP-1 receptor (hGLP-1R) (Homo sapiens, UniProt P43220); assay: [125I]-GLP-1 binding, SPA with membranes of HEK293 cells expressing hGLP-1R
T1 construct: expressed in transfected cells; crude membranes
Experimental: Two methods are used for the preparation of crude cell membranes.
Method 1: Frozen cell pellets are lysed on ice in hypotonic buffer containing 50 mM Tris HCl, pH 7.5, and Roche Complete™ Protease Inhibitors with EDTA. […] The homogenate is centrifuged at 4° C. at 1100 × g for 10 minutes. The supernatant is collected and stored on ice while the pellets are resuspended in homogenization buffer and rehomogenized as described above. The homogenate is centrifuged at 1100 × g for 10 minutes. The second supernatant is combined with the first supernatant and centrifuged at 35000 × g for 1 hour at 4° C. The resulting membrane pellet is resuspended in homogenization buffer containing protease inhibitors at approximately 1 to 3 mg/mL, quick frozen in liquid nitrogen and stored as aliquots in a -80° C. freezer until use.
The homogenate is centrifuged at 4° C. at 1800 × g for 15 minutes. The supernatant is collected and stored on ice while the pellets are resuspended in homogenization buffer (without DNAse I) and rehomogenized as described above. The homogenate is centrifuged at 1800 × g for 15 minutes. The second supernatant is combined with the first supernatant and centrifuged an additional time at 1800 × g for 15 minutes. The overall supernatant is then centrifuged at 25000 × g for 30 minutes at 4° C. The resulting membrane pellet is resuspended in homogenization buffer (without DNAse I) containing protease inhibitors at approximately 1 to 3 mg/mL and stored as aliquots in a -80° C. freezer until use.
The human GLP-1 receptor binding assay is performed using an SPA format with WGA beads. The binding buffer contains 25 mM HEPES, pH 7.4, 2.5 mM CaCl2, 1 mM MgCl2, 0.1% (w/v) bacitracin, 0.003% (w/v) TWEEN®-20, and Roche Complete™ Protease Inhibitors without EDTA.
Raw CPM data for concentration curves of peptides, Gcg, GLP-1, or GIP are converted to percent inhibition by subtracting nonspecific binding (binding in the presence of excess unlabeled Gcg, GLP-1, or GIP, respectively) from the individual CPM values and dividing by the total binding signal, also corrected by subtracting nonspecific binding. Data are analyzed using four-parameter (curve maximum, curve minimum, IC50, Hill slope) nonlinear regression routines (Genedata Screener, version 12.0.4, Genedata AG, Basal, Switzerland). […] Values for Ki are reported as the geometric mean, with error expressed as the standard error of the mean (SEM) and n is equal to the number of independent replicates (determined in assays performed on different days). Geometric Means are calculated as follows: […]
The Ki Ratio (Ki for native control peptide/Ki for test compound) at each receptor and each species is calculated. The Ki Ratio is a rapid indication of the apparent affinity of a peptide compared to the native control peptide.
n=⅟x means that only one value out of the total number of replicates (x) is used to express the mean. SEM is only calculated when n=2 or greater non-qualified results exist. Means are expressed as GeoMetric means with the standard error of the mean (SEM) and the number of replicates (n) indicated in parenthesis.

[2] = target: T2, hGCGR (Homo sapiens, UniProt P47871); assay: Functional cAMP formation (HTRF) in HEK-293 clonal cells expressing hGCGR, 0.1% bovine casein, without or with 1.0% human serum albumin; assay type: cell-based; details: cAMP, 37° C.
T2 construct: expressed in transfected cells
Summary of the method: (§1)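 Readings of the HTRF 665/620 nm ratio, which falls as cAMP rises, were converted to nM cAMP using a standard curve after 30 min peptide exposure at 37° C.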

[3] = target: hGLP-1R (Homo sapiens, UniProt P43220); assay: Functional cAMP formation (HTRF) in HEK-293 clonal cells expressing hGLP-1R, 0.1% bovine casein, without or with 1.0% human serum albumin; assay type: cell-based; design: expressed in transfected cells; details: for EC50: geometric mean
Summary of the method: as §1

[4] = target: T3, hGIPR (Homo sapiens, UniProt P48546); assay: Functional cAMP formation (HTRF) in HEK-293 clonal cells expressing hGIPR, 0.1% bovine casein, without or with 1.0% human serum albumin; assay type: cell-based; details: for Emax: percent of maximal response to GIP(1-42)NH2
T3 construct: expressed in transfected cells
T3 sequence (P48546 22-466): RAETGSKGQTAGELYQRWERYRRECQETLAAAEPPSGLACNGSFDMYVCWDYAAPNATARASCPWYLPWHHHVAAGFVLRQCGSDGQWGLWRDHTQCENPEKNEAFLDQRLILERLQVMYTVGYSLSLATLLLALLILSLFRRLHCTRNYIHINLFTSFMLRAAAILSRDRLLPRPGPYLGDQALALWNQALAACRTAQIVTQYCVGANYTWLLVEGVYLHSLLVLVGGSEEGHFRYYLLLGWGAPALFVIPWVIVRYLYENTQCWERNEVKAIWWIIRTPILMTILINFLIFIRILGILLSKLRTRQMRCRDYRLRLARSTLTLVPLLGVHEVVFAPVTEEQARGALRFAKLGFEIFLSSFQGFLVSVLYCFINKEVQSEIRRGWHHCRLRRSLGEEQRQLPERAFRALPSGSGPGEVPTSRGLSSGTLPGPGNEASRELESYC
Summary of the method: as §1

[5] = human GLP-1R, geometric mean (SEM, n), read-out: Binding Affinity Ki, nM (SEM, n) hGLP-1R

T2 sequence (P47871 26-477): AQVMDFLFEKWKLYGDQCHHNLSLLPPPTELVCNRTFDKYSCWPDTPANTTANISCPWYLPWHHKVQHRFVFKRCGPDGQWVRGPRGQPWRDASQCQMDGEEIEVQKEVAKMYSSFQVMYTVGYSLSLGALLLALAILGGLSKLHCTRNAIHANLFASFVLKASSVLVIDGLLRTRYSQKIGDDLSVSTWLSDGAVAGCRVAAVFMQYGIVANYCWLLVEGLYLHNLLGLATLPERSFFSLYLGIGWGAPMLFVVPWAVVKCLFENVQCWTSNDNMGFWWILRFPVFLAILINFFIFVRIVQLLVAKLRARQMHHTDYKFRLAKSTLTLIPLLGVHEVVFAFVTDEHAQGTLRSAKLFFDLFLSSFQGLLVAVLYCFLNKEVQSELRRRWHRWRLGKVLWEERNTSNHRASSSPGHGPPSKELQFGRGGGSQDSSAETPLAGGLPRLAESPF
Chain of hGLP-1R (P43220 24-463): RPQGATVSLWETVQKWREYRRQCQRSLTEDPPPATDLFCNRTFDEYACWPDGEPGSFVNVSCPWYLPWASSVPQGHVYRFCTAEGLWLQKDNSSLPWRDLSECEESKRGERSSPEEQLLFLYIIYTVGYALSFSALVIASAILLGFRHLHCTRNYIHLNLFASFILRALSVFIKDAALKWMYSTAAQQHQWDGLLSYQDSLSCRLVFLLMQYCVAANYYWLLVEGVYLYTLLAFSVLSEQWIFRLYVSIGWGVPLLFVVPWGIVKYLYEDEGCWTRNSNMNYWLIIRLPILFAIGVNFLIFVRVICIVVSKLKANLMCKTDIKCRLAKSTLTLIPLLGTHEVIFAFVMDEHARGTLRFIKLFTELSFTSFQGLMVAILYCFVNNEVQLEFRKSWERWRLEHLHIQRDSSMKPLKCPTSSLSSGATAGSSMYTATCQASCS
T1 sequence (P43220 24-463): as above

| Structure (SMILES) | Ki [1, 5] [nM] | EC50 ([2]; 0.1% bovine casein (no human serum albumin), geometric mean, read-out: hGCGR EC50, nM (SEM, n)) [nM] | EC50 ([2]; 0.1% bovine casein and 1.0% human serum albumin, geometric mean (SEM, n), read-out: hGCGR EC50, nM (SEM, n)) [nM] | Emax ([3]; HEK293, cAMP, 37° C., 0.1% bovine casein and 1.0% human serum albumin, percent of maximal response to GLP-1(7-36)NH2, read-out: hGLP-1R Emax, % ± SEM) [%] | Emax ([3]; HEK293, cAMP, 37° C., 0.1% bovine casein, percent of maximal response to GLP-1(7-36)NH2, arithmetic mean, read-out: hGLP-1R Emax, % ± SEM) [%] | EC50 ([3]; cAMP, 37° C., 0.1% bovine casein (no human serum albumin), read-out: hGLP-1R EC50, nM (SEM, n)) [nM] | Emax ([4]; HEK293, cAMP, 37° C., 0.1% bovine casein and 1.0% human serum albumin, read-out: hGIPR Emax, % ± SEM) [%] | EC50 ([4]; cAMP, 37° C., 0.1% bovine casein (no human serum albumin), geometric mean, read-out: hGIPR EC50, nM (SEM, n)) [nM] | Ki [1] [nM] | EC50 ([2]; hGCGR EC50, nM (SEM, n), 0.1% bovine casein (no human serum albumin), geometric mean) [nM] | EC50 ([2]; hGCGR EC50, nM (SEM, n), 0.1% bovine casein and 1.0% human serum albumin, geometric mean (SEM, n)) [nM] | Emax ([3]; HEK293, read-out: hGLP-1R Emax, % ± SEM, cAMP, 37° C., 0.1% bovine casein, percent of maximal response to GLP-1(7-36)NH2, arithmetic mean) [%] | EC50 ([3]; hGLP-1R EC50, nM (SEM, n), cAMP, 37° C., 0.1% bovine casein (no human serum albumin)) [nM] | Emax ([4]; HEK293, read-out: hGIPR Emax, % ± SEM, cAMP, 37° C., 0.1% bovine casein and 1.0% human serum albumin) [%] | Emax ([4]; HEK293, read-out: hGIPR Emax, % ± SEM, cAMP, 37° C., 0.1% bovine casein, arithmetic mean) [%] | EC50 ([4]; hGIPR EC50, nM (SEM, n), cAMP, 37° C., 0.1% bovine casein (no human serum albumin), geometric mean) [nM] | EC50 ([4]; hGIPR EC50, nM (SEM, n), cAMP, 37° C., 0.1% bovine casein and 1.0% human serum albumin, geometric mean (SEM, n)) [nM] | EC50 ([3]; 0.1% bovine casein and 1.0% human serum albumin, 37° C., read-out: hGLP-1R EC50, nM (SEM, n)) [nM] | Emax ([3]; HEK293, percent of maximal response to GLP-1(7-36)NH2, 37° C., 0.1% bovine casein, arithmetic mean, read-out: hGLP-1R Emax, % ± SEM) [%] | EC50 ([4]; 0.1% bovine casein and 1.0% human serum albumin, 37° C., geometric mean, read-out: hGIPR EC50, nM (SEM, n)) [nM] |
| --- | --- | --- | --- | --- | --- | --- | --- | --- | --- | --- | --- | --- | --- | --- | --- | --- | --- | --- | --- | --- |
| CCCCCCCCCCCC(=O)N[C@@H](CCC(=O)NCCOCCOCC(=O)NCCOCCOCC(=O)NCCOCCOCC(=O)NCCCC[C@H](NC(=O)[C@H](CO)NC(=O)[C@@H]1CCCN1C(=O)[C@@H]1CCCN1C(=O)[C@@H]1CCCN1C(=O)[C@H](C)NC(=O)CNC(=O)[C@H](CO)NC(=O)[C@H](CO)NC(=O)[C@@H]1CCCN1C(=O)CNC(=O)CNC(=O)[C@H](CCC(=O)O)NC(=O)[C@@H](NC(=O)[C@H](CC(C)C)NC(=O)[C@](C)(Cc1ccc(O)cc1)NC(=O)[C@@H](CCC(=O)O)NC(=O)[C@@H](NC(=O)[C@H](Cc1ccccc1)NC(=O)[C@H](CCCN)NC(=O)C(C)(C)NC(=O)[C@H](CCC(N)=O)NC(=O)[C@H](C)NC(=O)[C@H](CCCCNC(=O)COCCOCCNC(=O)COCCOCCNC(=O)COCCOCCNC(=O)CC[C@H](NC(=O)CCCCCCCCCCC)C(=O)O)NC(=O)[C@H](CCCN)NC(=O)[C@H](CC(=O)O)NC(=O)[C@H](CC(C)C)NC(=O)[C@](C)(CC(C)C)NC(=O)[C@@H](NC(=O)C(C)(C)NC(=O)[C@H](Cc1ccncc1)NC(=O)[C@H](CC(=O)O)NC(=O)[C@H](CO)NC(=O)[C@@H](NC(=O)[C@](C)(Cc1ccccc1F)NC(=O)[C@@H](NC(=O)CNC(=O)[C@H](CCC(=O)O)NC(=O)C(C)(C)NC(=O)[C@@H](N)Cc1ccc(O)cc1)[C@@H](C)O)[C@@H](C)O)[C@@H](C)CC)[C@@H](C)CC)[C@@H](C)CC)C(N)=O)C(=O)O [Example 435] | 0.122 | > 9950 | > 9950 | 97.8 | 111 | 0.0527 | 98.7 | 0.00517 | – | – | – | – | – | – | – | – | – | – | – | – |
| CC[C@H](C)[C@H](NC(=O)[C@H](CC(C)C)NC(=O)[C@](C)(Cc1ccc(O)cc1)NC(=O)[C@H](CCCCNC(=O)COCCOCCNC(=O)COCCOCCNC(=O)CC[C@H](NC(=O)CCCCCCCCCOc1ccc(C(=O)O)cc1)C(=O)O)NC(=O)[C@@H](NC(=O)[C@H](Cc1ccccc1)NC(=O)[C@H](Cc1ccncc1)NC(=O)C(C)(C)NC(=O)[C@H](CCC(N)=O)NC(=O)[C@H](C)NC(=O)[C@H](CCC(N)=O)NC(=O)[C@H](CCCN)NC(=O)[C@H](CC(=O)O)NC(=O)[C@H](CC(C)C)NC(=O)[C@](C)(CC(C)C)NC(=O)[C@@H](NC(=O)C(C)(C)NC(=O)[C@H](Cc1ccncc1)NC(=O)[C@H](CC(=O)O)NC(=O)[C@H](CO)NC(=O)[C@@H](NC(=O)[C@](C)(Cc1ccccc1F)NC(=O)[C@@H](NC(=O)CNC(=O)[C@H](CCC(=O)O)NC(=O)C(C)(C)NC(=O)[C@@H](N)Cc1ccc(O)cc1)[C@@H](C)O)[C@@H](C)O)[C@@H](C)CC)[C@@H](C)CC)C(=O)N[C@@H](CCCCNC(=O)COCCOCCNC(=O)COCCOCCNC(=O)CC[C@H](NC(=O)CCCCCCCCCOc1ccc(C(=O)O)cc1)C(=O)O)C(=O)NCC(=O)NCC(=O)N1CCC[C@H]1C(=O)N[C@@H](CO)C(=O)N[C@@H](CO)C(=O)NCC(=O)N[C@@H](C)C(=O)N1CCC[C@H]1C(=O)N1CCC[C@H]1C(=O)N1CCC[C@H]1C(=O)N[C@@H](CO)C(N)=O [Example 493] | – | – | – | – | – | – | – | – | 0.25 | > 9950 | > 9950 | 126 | 0.184 | 94.6 | 105 | 0.0155 | 0.591 | – | – | – |
| CCCCCCCCCCCCCCCC(=O)N[C@@H](CCC(=O)NCCOCCOCC(=O)NCCOCCOCC(=O)NCCCC[C@H](NC(=O)CNC(=O)CNC(=O)[C@H](CCC(=O)O)NC(=O)[C@@H](NC(=O)[C@H](CC(C)C)NC(=O)[C@](C)(Cc1ccc(O)cc1)NC(=O)[C@@H](CCC(=O)O)NC(=O)[C@@H](NC(=O)[C@H](Cc1ccccc1)NC(=O)[C@H](CCC(=O)O)NC(=O)C(C)(C)NC(=O)[C@H](CCC(N)=O)NC(=O)[C@H](C)NC(=O)[C@H](CCCCNC(=O)COCCOCCNC(=O)COCCOCCNC(=O)CC[C@H](NC(=O)CCCCCCCCCCCCCCC)C(=O)O)NC(=O)[C@H](CCCN)NC(=O)[C@H](CC(=O)O)NC(=O)[C@H](CC(C)C)NC(=O)[C@](C)(CC(C)C)NC(=O)[C@@H](NC(=O)[C@H](CO)NC(=O)[C@H](Cc1ccncc1)NC(=O)[C@H](CC(=O)O)NC(=O)[C@H](CO)NC(=O)[C@@H](NC(=O)[C@](C)(Cc1ccccc1F)NC(=O)[C@@H](NC(=O)CNC(=O)[C@H](CCC(=O)O)NC(=O)C(C)(C)NC(=O)[C@@H](N)Cc1ccc(O)cc1)[C@@H](C)O)[C@@H](C)O)[C@@H](C)CC)[C@@H](C)CC)[C@@H](C)CC)C(=O)N[C@@H](CO)C(=O)N[C@@H](CO)C(=O)NCC(=O)N[C@@H](C)C(=O)N1CCC[C@H]1C(=O)N1CCC[C@H]1C(=O)N1CCC[C@H]1C(=O)N[C@@H](CO)C(N)=O)C(=O)O [Example 7] | 0.362 | – | – | – | – | – | – | – | – | – | – | – | – | – | – | – | – | 2.74 | 95.4 ± 5.03 | 0.566 |

From patent publication US20230265151A1, “GIP/GLP1 CO-AGONIST COMPOUNDS” (priority 2020, published 2023)
